Results on 35 compounds are retold here after US7585859B2, “PDE4B inhibitors and uses therefor” (Plexxikon, Inc., priority 2004, dated 2009).

Experiment [1] deals with T1, PDE4B: The catalytic domain of human PDE4B from S152-S528 (Homo sapiens, UniProt Q07343).
T1 construct: His6 (N); thrombin cleavage site (N); made in house; host or cells: E. coli
The experiment in a line: PDE4 IC50 determination by Scintillation Proximity Assay, PDE4B. The format is biochemical. The procedure, abridged:
(§1)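 Hydrolysis of [^3H]cAMP measured by SPA with yttrium silicate beads, which bind the [^3H]AMP product strongly and cAMP weakly. Enzyme at 80 ng/ml for PDE4B, 4 ng/ml for PDE4D; 30 min at 30°.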

The next experiment addresses T2, PDE4D (Homo sapiens, UniProt Q08499).
T2 construct: PDE4D: The catalytic domain of human PDE4B from S3 16-V692; His6 (N); thrombin cleavage site (N); made in house; host or cells: E. coli
In words: PDE4 IC50 determination by Scintillation Proximity Assay, PDE4D. Format: biochemical. The procedure, abridged:
as §1

Where [2] appears, read: second part of Table 2B (2-23 to 2-103), column 3, column is PDE4B in first part, read-out: IC 50 vs. indicated assay h TNFα.
The mark [3] stands for this setting: second part of Table 2B (2-23 to 2-103), column 5, column is PDE4D in first part, read-out: IC 50 vs. indicated assay h TNFα.
The mark [4] stands for this setting: Table 3A, Formula III compounds, read-out: IC50 PDE4B.
[5] abbreviates: Table 3A, Formula III compounds, read-out: IC50 PDE4D.

SMILES strings stand for the structures. pIC50: −log10 of the molar value. Where two headings read alike, the source gives them in different places. Bounds are passed on as bounds.

T1 sequence (Q07343 with tags, fused parts or gaps): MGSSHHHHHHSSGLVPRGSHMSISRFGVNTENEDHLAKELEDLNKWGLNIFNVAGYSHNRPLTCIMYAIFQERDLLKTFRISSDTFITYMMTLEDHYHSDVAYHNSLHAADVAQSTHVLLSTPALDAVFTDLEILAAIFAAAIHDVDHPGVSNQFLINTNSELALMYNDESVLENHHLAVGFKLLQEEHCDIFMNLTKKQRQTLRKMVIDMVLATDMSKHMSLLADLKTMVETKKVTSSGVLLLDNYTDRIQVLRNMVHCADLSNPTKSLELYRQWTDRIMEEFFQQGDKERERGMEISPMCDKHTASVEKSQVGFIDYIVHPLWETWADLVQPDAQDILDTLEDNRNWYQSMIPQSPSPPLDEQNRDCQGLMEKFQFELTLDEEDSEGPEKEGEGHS
T2 sequence (Q08499 380-756): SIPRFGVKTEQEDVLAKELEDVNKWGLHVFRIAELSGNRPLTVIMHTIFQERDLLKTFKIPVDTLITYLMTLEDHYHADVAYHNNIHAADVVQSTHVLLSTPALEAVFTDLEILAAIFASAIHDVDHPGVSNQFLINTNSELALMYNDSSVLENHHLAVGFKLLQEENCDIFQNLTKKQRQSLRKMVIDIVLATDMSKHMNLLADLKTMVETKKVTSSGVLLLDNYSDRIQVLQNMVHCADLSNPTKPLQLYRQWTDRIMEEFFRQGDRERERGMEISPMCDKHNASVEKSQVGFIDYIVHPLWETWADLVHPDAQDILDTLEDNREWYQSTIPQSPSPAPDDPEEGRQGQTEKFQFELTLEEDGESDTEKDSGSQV

On to `Nc1nc(NC2CC2)sc1C(=O)c1cccc(C(F)(F)F)c1` [Compound 2-88, (4-Amino-2-cyclopropylamino-thiazol-5-yl)-(3-trifluoromethyl-phenyl)-methanone], for which the pIC50 (in experiment [1] (setting [2]); on PDE4D (setting [3])) was greater than 5.00 each time.

`Nc1nc(Nc2ccccc2)sc1C(=O)C1CCCC1` [Compound 2-89, (4-Amino-2-phenylamino-thiazol-5-yl)-cyclopentyl-methanone]: the pIC50 (in experiment [1] (setting [2]); at PDE4D (setting [3])) was greater than 5.00 in each case.

Turning to `Nc1nc(Nc2ccccc2)sc1C(=O)C1CCCCC1` [Compound 2-90, (4-Amino-2-phenylamino-thiazol-5-yl)-cyclohexyl-methanone], the pIC50 (in experiment [1] (setting [2]); on PDE4D (setting [3])) was greater than 5.00 each time.

With `Nc1nc(Nc2ccc(Cl)cc2)sc1C(=O)C1CCCCC1` [Compound 2-91, [4-Amino-2-(4-chloro-phenylamino)-thiazol-5-yl]-cyclohexyl-methanone], the pIC50 was greater than 5.00 in experiment [1] (setting [2]) and less than 5.00 on PDE4D (setting [3]).

Regarding `Nc1nc(Nc2c(Cl)cccc2Cl)sc1C(=O)CC1CCCC1` [Compound 2-94, 1-[4-Amino-2-(2,6-dichloro-phenylamino)-thiazol-5-yl]-2-cyclopentyl-ethanone], the pIC50 (in experiment [1] (setting [2]); on PDE4D (setting [3])) was less than 5.00 in each case.

As to `Nc1nc(Nc2ccccc2)sc1C(=O)C1CC1` [Compound 2-95, (4-Amino-2-phenylamino-thiazol-5-yl)-cyclopropyl-methanone], the pIC50 in experiment [1] (setting [2]) is greater than 5.00; at PDE4D (setting [3]), less than 5.00.

Take `Nc1nc(Nc2c(Cl)cccc2Cl)sc1C(=O)C1CC1` [Compound 2-96, [4-Amino-2-(2,6-dichloro-phenylamino)-thiazol-5-yl]-cyclopropyl-methanone]: the pIC50 (in experiment [1] (setting [2]); on PDE4D (setting [3])) was greater than 5.00 throughout.

In the case of `Nc1nc(Nc2ccc(Oc3ccccc3)cc2)sc1C(=O)C1CC1` [Compound 2-97, [4-Amino-2-(4-phenoxy-phenylamino)-thiazol-5-yl]-cyclopropyl-methanone], the pIC50 (in experiment [1] (setting [2]); on PDE4D (setting [3])) was greater than 5.00 throughout.

As to `Nc1nc(Nc2ccccc2F)sc1C(=O)C1CCCC1` [Compound 2-98, [4-Amino-2-(2-fluoro-phenylamino)-thiazol-5-yl]-cyclopentyl-methanone], the pIC50 (in experiment [1] (setting [2]); at PDE4D (setting [3])) was greater than 5.00 each time.

For the compound `COc1ccc(Nc2nc(N)c(C(=O)C3CCCC3)s2)cc1` [Compound 2-99, [4-Amino-2-(4-methoxy-phenylamino)-thiazol-5-yl]-cyclopentyl-methanone], the pIC50 (in experiment [1] (setting [2]); on PDE4D (setting [3])) was less than 5.00 in each case.

For `N#Cc1cccc(Nc2nc(N)c(C(=O)C3CCCC3)s2)c1` [Compound 2-100, 3-(4-Amino-5-cyclopentanecarbonyl-thiazol-2-ylamino)-benzonitrile], the pIC50 (in experiment [1] (setting [2]); at PDE4D (setting [3])) was greater than 5.00 in each case.

As for `Nc1nc(Nc2ccc(Oc3ccccc3)cc2)sc1C(=O)C1CCCC1` [Compound 2-101, [4-Amino-2-(4-phenoxy-phenylamino)-thiazol-5-yl]-cyclopentyl-methanone], the pIC50 (in experiment [1] (setting [2]); at PDE4D (setting [3])) was less than 5.00 in each case.

For the compound `Nc1nc(NC2CCCC2)sc1C(=O)c1ccsc1` [Compound 2-102, (4-Amino-2-cyclopentylamino-thiazol-5-yl)-thiophen-3-yl-methanone], the pIC50 (in experiment [1] (setting [2]); at PDE4D (setting [3])) was greater than 5.00 each time.

Turning to `Nc1nc(NC2CCCC2)sc1C(=O)c1nc2ccccc2s1` [Compound 2-103, (4-Amino-2-cyclopentylamino-thiazol-5-yl)-benzothiazol-2-yl-methanone], the pIC50 (in experiment [1] (setting [2]); on PDE4D (setting [3])) was greater than 5.00 throughout.

With `O=S(=O)(Nc1cccc2cccnc12)c1cccs1` [Compound 3-1, Thiophene-2-sulfonic acid guinolin-8-ylamide], the pIC50 (in experiment [1] (setting [4]); at PDE4D (setting [5])) was less than 5.00 in each case.

`COc1cc(NS(=O)(=O)c2ccc(Br)s2)c2ncccc2c1` [Compound 3-2, 5-Bromo-thiophene-2-sulfonic acid (6-methoxy-quinolin-8-yl)-amide]: the pIC50 (in experiment [1] (setting [4]); at PDE4D (setting [5])) was less than 5.00 throughout.

Take `Cc1ccc2cccnc2c1NS(=O)(=O)c1ccc(Cl)s1` [Compound 3-3, 5-Chloro-thiophene-2-sulfonic acid (7-methyl-quinolin-8-yl)-amide]: the pIC50 (in experiment [1] (setting [4]); on PDE4D (setting [5])) was less than 5.00 in each case.

`O=S(=O)(Nc1cccc2cccnc12)c1ccc(Br)s1` [Compound 3-4, 5-Bromo-thiophene-2-sulfonic acid quinolin-8-ylamide]: the pIC50 (in experiment [1] (setting [4]); on PDE4D (setting [5])) was less than 5.00 each time.

`Cc1ccc2cccnc2c1NS(=O)(=O)c1cccs1` [Compound 3-5, Thiophene-2-sulfonic acid (7-methyl-quinolin-8-yl)-amide]: the pIC50 (in experiment [1] (setting [4]); on PDE4D (setting [5])) was less than 5.00 throughout.

Take `Cc1ccc2cccnc2c1NS(=O)(=O)c1ccc(Br)s1` [Compound 3-6, 5-Bromo-thiophene-2-sulfonic acid (7-methyl-quinolin-8-yl)-amide]: the pIC50 (in experiment [1] (setting [4]); on PDE4D (setting [5])) was less than 5.00 in each case.

Turning to `O=S(=O)(Nc1cccc2cccnc12)c1ccc(Cl)s1` [Compound 3-7, 5-Chloro-thiophene-2-sulfonic acid quinolin-8-ylamide], the pIC50 (in experiment [1] (setting [4]); on PDE4D (setting [5])) was less than 5.00 each time.

On to `Cc1ccc2cccnc2c1NS(=O)(=O)c1cc(Cl)c(Cl)s1` [Compound 3-8, 4,5-Dichloro-thiophene-2-sulfonic acid (7-methyl-quinolin-8-yl)-amide], for which the pIC50 (in experiment [1] (setting [4]); at PDE4D (setting [5])) was less than 5.00 in each case.

As to `COc1cc(NS(=O)(=O)c2cc(Cl)c(Cl)s2)c2ncccc2c1` [Compound 3-9, 4,5-Dichloro-thiophene-2-sulfonic acid (6-methoxy-quinolin-8-yl)-amide], the pIC50 (in experiment [1] (setting [4]); at PDE4D (setting [5])) was less than 5.00 throughout.

Turning to `O=S(=O)(Nc1cccc2cccnc12)c1cc(Cl)c(Cl)s1` [Compound 3-10, 4,5-Dichloro-thiophene-2-sulfonic acid quinolin-8-ylamide], the pIC50 (in experiment [1] (setting [4]); on PDE4D (setting [5])) was less than 5.00 throughout.

On to `Cc1ccc2cccnc2c1NS(=O)(=O)c1cc(Cl)sc1Cl` [Compound 3-11, 2,5-Dichloro-thiophene-3-sulfonic acid (7-methyl-quinolin-8-yl)-amide], for which the pIC50 (in experiment [1] (setting [4]); at PDE4D (setting [5])) was less than 5.00 in each case.

Regarding `COc1cc(NS(=O)(=O)c2ccc(Cl)s2)c2ncccc2c1` [Compound 3-12, 5-Chloro-thiophene-2-sulfonic acid (6-methoxy-quinolin-8-yl)-amide], the pIC50 (in experiment [1] (setting [4]); on PDE4D (setting [5])) was less than 5.00 each time.

Turning to `COc1cc(NS(=O)(=O)c2cccs2)c2ncccc2c1` [Compound 3-13, Thiophene-2-sulfonic acid (6-methoxy-quinolin-8-yl)-amide], the pIC50 (in experiment [1] (setting [4]); at PDE4D (setting [5])) was less than 5.00 throughout.

`COc1cc(NS(=O)(=O)c2ccc(-c3ccnc(SC)n3)s2)c2ncccc2c1` [Compound 3-14, 5-(2-Methylsulfanyl-pyrimidin-4-yl)-thiophene-2-sulfonic acid (6-methoxy-quinolin-8-yl)-amide]: the pIC50 (in experiment [1] (setting [4]); at PDE4D (setting [5])) was greater than 5.00 throughout.

On to `CSc1nccc(-c2ccc(S(=O)(=O)Nc3c(C)ccc4cccnc34)s2)n1` [Compound 3-15, 5-(2-Methylsulfanyl-pyrimidin-4-yl)-thiophene-2-sulfonic acid (7-methyl-quinolin-8-yl)-amide], for which the pIC50 (in experiment [1] (setting [4]); at PDE4D (setting [5])) was less than 5.00 each time.

For the compound `CSc1nccc(-c2ccc(S(=O)(=O)Nc3cccc4cccnc34)s2)n1` [Compound 3-16, 5-(2-Methylsulfanyl-pyrimidin-4-yl)-thiophene-2-sulfonic acid quinolin-8-ylamide], the pIC50 (in experiment [1] (setting [4]); at PDE4D (setting [5])) was greater than 5.00 each time.

Take `Cn1nc(-c2ccc(S(=O)(=O)Nc3cccc4cccnc34)s2)cc1C(F)(F)F` [Compound 3-20, 5-(1-Methyl-5-trifluoromethyl-1H-pyrazol-3-yl)-thiophene-2-sulfonic acid quinolin-8-ylamide]: the pIC50 (in experiment [1] (setting [4]); on PDE4D (setting [5])) was less than 5.00 each time.

As for `COc1cc(NS(=O)(=O)c2ccc(-c3cc(C(F)(F)F)n(C)n3)s2)c2ncccc2c1` [Compound 3-21, 5-(1-Methyl-5-trifluoromethyl-1H-pyrazol-3-yl)-thiophene-2-sulfonic acid (6-methoxy-quinolin-8-yl)-amide], the pIC50 (in experiment [1] (setting [4]); at PDE4D (setting [5])) was less than 5.00 throughout.

With `Cc1ccc2cccnc2c1NS(=O)(=O)c1ccc(-c2cc(C(F)(F)F)n(C)n2)s1` [Compound 3-22, 5-(1-Methyl-5-trifluoromethyl-1H-pyrazol-3-yl)-thiophene-2-sulfonic acid (7-methyl-quinolin-8-yl)-amide], the pIC50 (in experiment [1] (setting [4]); on PDE4D (setting [5])) was less than 5.00 throughout.

Consider `O=S(=O)(Nc1cccc2cccnc12)c1ccc(-c2ccon2)s1` [Compound 3-23, 5-Isoxazol-3-yl-thiophene-2-sulfonic acid quinolin-8-ylamide], for which the pIC50 (in experiment [1] (setting [4]); on PDE4D (setting [5])) was less than 5.00 each time.

For the compound `Cc1ccc2cccnc2c1NS(=O)(=O)c1ccc(-c2ccon2)s1` [Compound 3-24, 5-Isoxazol-3-yl-thiophene-2-sulfonic acid (7-methyl-quinolin-8-yl)-amide], the pIC50 (in experiment [1] (setting [4]); at PDE4D (setting [5])) was less than 5.00 in each case.
